{"source": "paper PMC5591244", "about": "“Novel selective, potent naphthyl TRPM8 antagonists identified through a combined ligand- and structure-based virtual screening approach” (Scientific Reports, 2017)", "type_in_all_cases": "cell-based", "key": {"TRPM8 D802A": {"biological_target": "T1, TRPM8 D802A (Homo sapiens, UniProt Q7Z2W7, D802A)", "T1 construct": "expressed in transfected cells; host or cells: HEK-293, transient (Lipofectamine 2000)", "T1 sequence (Q7Z2W7 whole entry D802A)": "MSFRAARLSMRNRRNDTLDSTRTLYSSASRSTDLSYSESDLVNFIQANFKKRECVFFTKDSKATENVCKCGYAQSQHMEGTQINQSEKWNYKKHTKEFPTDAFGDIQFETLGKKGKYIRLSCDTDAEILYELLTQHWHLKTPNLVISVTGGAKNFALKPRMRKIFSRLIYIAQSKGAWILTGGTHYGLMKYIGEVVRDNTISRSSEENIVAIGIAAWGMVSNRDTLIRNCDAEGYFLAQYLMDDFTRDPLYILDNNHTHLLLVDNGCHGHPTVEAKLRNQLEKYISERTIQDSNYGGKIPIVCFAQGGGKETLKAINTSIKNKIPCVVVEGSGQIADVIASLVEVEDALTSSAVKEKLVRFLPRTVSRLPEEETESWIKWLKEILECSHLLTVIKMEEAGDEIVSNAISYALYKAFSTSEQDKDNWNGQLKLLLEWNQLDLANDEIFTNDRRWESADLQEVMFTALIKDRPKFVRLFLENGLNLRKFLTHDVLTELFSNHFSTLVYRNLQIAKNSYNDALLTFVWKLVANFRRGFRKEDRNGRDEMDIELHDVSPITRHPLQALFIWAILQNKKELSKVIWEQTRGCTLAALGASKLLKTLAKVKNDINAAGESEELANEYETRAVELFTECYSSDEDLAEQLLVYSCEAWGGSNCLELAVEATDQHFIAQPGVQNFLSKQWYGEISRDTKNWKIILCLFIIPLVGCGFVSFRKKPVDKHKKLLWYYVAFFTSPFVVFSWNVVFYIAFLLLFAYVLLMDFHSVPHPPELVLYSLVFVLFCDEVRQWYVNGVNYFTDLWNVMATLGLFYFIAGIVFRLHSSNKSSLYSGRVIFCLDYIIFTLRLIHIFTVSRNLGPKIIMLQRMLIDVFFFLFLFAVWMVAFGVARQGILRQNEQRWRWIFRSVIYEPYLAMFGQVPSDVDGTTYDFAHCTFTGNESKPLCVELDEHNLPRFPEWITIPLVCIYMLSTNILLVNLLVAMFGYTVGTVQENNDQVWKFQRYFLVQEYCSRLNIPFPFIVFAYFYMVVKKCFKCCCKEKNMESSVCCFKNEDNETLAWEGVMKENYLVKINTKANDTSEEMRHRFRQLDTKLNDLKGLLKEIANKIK", "assay": "Calcium mobilization on transiently transfected TRPM8 D802A mutant", "details": "Cooling agent 10 at EC80, D802A; read-out: pIC50, inhibition of Cooling agent 10 activation, D802A (converted)", "description": "Single point mutations were introduced in the hTRPM8-coding sequence, and the mutated TRPM8 was cloned as N-terminal c-myc tagged version into the pcDNA3 expression vector. This was done in that way that the single variations could be easily swapped from the myc-tagged expression construct into the non-tagged TRPM8 wild type expression construct.\nThe list of the variants is the following: variant 1, t2233g, a2234c (=Y745A); variant 2, a2236g, t2237c (=I746A); variant 3, a2395g, a2396c (=N799A) and variant 4, a2405c (D802A). The cloning project comprised three steps. First of all, a unique XhoI restriction site was inserted by site-directed mutagenesis (SDM) using DNA of the pcDNA3_TRPM8 construct as template. The 0.6 kb DNA fragment between the unique 5′ XhoI (introduced) and 3′ BamHI (already present) restriction sites comprised all positions of the four single point mutations and could be later used for their insertion as well as swapping between myc-tagged and non-tagged TRPM8 versions. In a second step, the c-myc tag sequence was introduced embedded within the TRPM8 coding sequence by PCR primers in two partially overlapping PCRs that were then joined by bridge PCR with the external 5′KpnI and internal 3′EcoRI primers and in the last step the point mutations 1 to 4 were inserted into pcDNA3_c-myc-TRPM8 by exchanging the wild type 5′XhoI-3′BamHI fragment (0.6 kb) with each of the corresponding variation fragment derived from synthetic DNA (provided by GeneArt, ThermoFisher Scientific).The myc-tagged constructs were transiently transfected in HEK-293 cells with Lipofectamine 2000 (Invitrogen) according to the manufacturer’s protocol. The pcDNA vectors containing the wt myc-tagged TRPM8 gene and the empty pcDNA3 (mock) were separately transfected into HEK-293 cells as controls. […] The obtained data from at least four wells (as replicates) were analyzed with GraphPad PRISM® software (version 5, GraphPad Software Inc.) to calculate the mean and standard error of the mean[58], to create sigmoidal concentration-response curves and to calculate IC50 values."}, "TRPV3": {"tested_on": "TRPV3", "assay": "Selectivity, TRPV3 as named in the discussion"}, "TRPV4": {"biological_target": "TRPV4 (Homo sapiens, UniProt Q9HBA0)", "sequence (Q9HBA0 whole entry, species assumed)": "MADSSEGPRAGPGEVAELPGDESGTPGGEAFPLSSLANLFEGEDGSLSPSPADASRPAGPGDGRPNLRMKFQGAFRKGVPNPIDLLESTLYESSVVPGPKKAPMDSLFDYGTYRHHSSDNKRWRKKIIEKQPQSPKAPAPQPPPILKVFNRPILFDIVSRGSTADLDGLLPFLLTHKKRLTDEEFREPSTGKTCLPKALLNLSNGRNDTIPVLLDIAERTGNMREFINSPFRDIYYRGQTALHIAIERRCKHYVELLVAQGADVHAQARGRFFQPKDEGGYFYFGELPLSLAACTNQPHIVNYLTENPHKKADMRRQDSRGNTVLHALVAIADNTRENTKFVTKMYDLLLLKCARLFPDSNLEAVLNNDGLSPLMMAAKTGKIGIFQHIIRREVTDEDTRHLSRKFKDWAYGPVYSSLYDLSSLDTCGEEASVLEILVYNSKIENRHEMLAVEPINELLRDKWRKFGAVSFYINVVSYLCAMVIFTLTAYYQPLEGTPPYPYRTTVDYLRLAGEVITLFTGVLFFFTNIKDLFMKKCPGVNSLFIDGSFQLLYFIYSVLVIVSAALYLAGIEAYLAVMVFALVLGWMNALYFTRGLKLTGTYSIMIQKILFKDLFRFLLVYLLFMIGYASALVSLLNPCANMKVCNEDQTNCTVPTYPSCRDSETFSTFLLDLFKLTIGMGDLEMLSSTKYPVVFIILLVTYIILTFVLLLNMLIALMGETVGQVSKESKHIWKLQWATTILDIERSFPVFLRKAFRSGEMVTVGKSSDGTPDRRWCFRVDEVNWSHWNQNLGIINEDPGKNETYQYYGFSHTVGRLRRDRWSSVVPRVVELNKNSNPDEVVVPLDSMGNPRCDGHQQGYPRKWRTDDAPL", "assay": "Selectivity calcium mobilization assay, TRPV4", "details": "agonist 20 nM GSK1016790A", "protocol": "For calcium mobilization assays, cells were seeded at 10,000 cells/well in 384-well plates coated with poly-D-lysine (MATRIX black/clear bottom #4332-CPL, Thermo Scientific, Waltham, MA, USA) in complete medium.Twenty-four hours after seeding, the plates were washed with Tyrode’s buffer with a Bio-Tek-ELx405 Microplate Washer (Merck Millipore; Billerica, MA, USA), and then 10 µl/well of a solution containing the fluorescent Ca^2+ indicator Fluo-4 NW dye was added. Cells were incubated for 1 h at room temperature before test compounds were added at 3X the concentration with respect to the final wanted concentration to be tested with a FLIPR TETRA system (Molecular Devices, Sunnyvale, CA, USA). Calcium mobilization was monitored over a period of 5 min. A second injection of 10 µl/well of a reference agonist (icilin or Cooling agent 10) at 4X concentration in assay buffer was performed using the FLIPR TETRA system. Of note, for selectivity assays, the following agonists were used: 10 μM AITC (allyl isothiocyanate) for TRPA1; 100 nM Capsaicin for TRPV1; and 20 nM GSK1016790A for TRPV4."}}, "data": [{"smiles": "Clc1c(OCCNCc2ccco2)ccc2ccccc12", "note": "[Compound 1]", "values": [{"measurement": "IC50", "setting": "TRPM8 D802A", "value": 3.16, "unit": "µM"}, {"measurement": "Effect on inhibition of TRPV3", "setting": "TRPV3", "value": "didn’t have any effect"}, {"measurement": "Activity on TRPV4", "setting": "TRPV4", "value": "completely inactive"}]}]}
